Source: patent US20220324909A1, “THERAPEUTIC PEPTIDES” (COHBAR, INC., priority 2019, published 2022)
Non-standard residues stand in square brackets, D forms with d. No end group written: not given here.

What was measured:
H4-IIE cells = assay: Glucose production in cultured H4-IIE cells and insulin dependence; assay type: cell-based, rat; details: 24 h; for Glucose Production, Percent of Control Activity No Insulin: peptide 10 μM alone, relative to untreated cells; for Glucose Production, Percent of Control Activity With Insulin: peptide 10 μM with 800 μM insulin, relative to insulin treated cells
Method: The effect of the peptides on glucose homeostasis can be assessed using an assay to monitor glucose production by cultured cells such as rat hepatocytes. […] Following 24 h incubation, conditioned medium from each well was transferred to a fresh 96-well plate. Glucose concentrations in the medium were determined using a Glucose Assay kit (Abcam; Cambridge, Mass.) according to the manufacturer's instructions; absorbance measured using a Cytation 3 plate reader at 570 nm (BioTek, Winooski, Vt.). […] Untreated cells were used as reference for maximal glucose production. […] Insulin at 800 μM was used as a modest inhibitor glucose production. […] Data are presented as averages values from 2-4 independent experiments with each data point performed in triplicate.

C2C12 cells [1] = assay: Glucose utilization in cultured C2C12 cells and insulin dependence; assay type: cell-based, mouse; details: 22 h; for Glucose Utilization, Percent of Control Activity No Insulin: peptide 10 μM alone, glucose in medium relative to untreated cells; for Glucose Utilization, Percent of Control Activity With Insulin: peptide 10 μM with 5-20 nM insulin, glucose in medium relative to insulin treated cells
From the text: The effect of the peptides on glucose homeostasis can be assessed using an assay to monitor glucose utilization by cultured cells such as mouse myotubes. […] C2C12 mouse muscle cell line was purchased from Millipore Sigma (Saint Louis, Mo.). […] Three days after plating the medium was removed and with Differentiation Medium (DMEM/low glucose (1 g/L)+2% Horse Serum+antibiotics) added. […] After 5 days of differentiation, the medium was removed from myotube cultures and replaced with Assay Medium (DMEM/low glucose (1 g/L)+antibiotics). […] Following the 5 h incubation the medium was removed and fresh Assay Medium containing compounds added; 10 μM peptide in absence or presence of 5-20 nM insulin, or 1 mM metformin as a potent stimulator of glucose utilization. […] Following 22 h incubation, conditioned medium from each well was transferred to a fresh 96-well plate. Glucose concentrations in the medium were determined using a Glucose Assay kit (Abcam; Cambridge, Mass.) according to the manufacturer's instructions; absorbance measured using a Cytation 3 plate reader at 570 nm (BioTek, Winooski, Vt.). Absorbance values were expressed as percent control activity relative to untreated treated cells (no insulin) for 10 μM peptide alone or 5-20 nM insulin treated cells (with insulin) for 10 μM peptide in presence of 5-20 nM insulin. Untreated cells were used as reference for basal glucose utilization. The relative standard deviation from plate to plate of untreated control was <10%. Metformin at 1 mM was used as a potent control for increasing glucose utilization. Glucose levels for metformin (1 mM) treatment were <10% of the untreated control value. Data are presented as averages values from 2-3 independent experiments with each data point performed in triplicate.

3T3-L1 mouse adipocytes = assay: Free fatty acid levels in cultured 3T3-L1 mouse adipocytes and insulin dependence (Example 17); assay type: cell-based; details: isoproterenol 0.1 nM; for Free Fatty Acid Levels, Percent of Isoproterenol Control Activity No Insulin: peptide 10 μM alone, relative to isoproterenol treated cells; for Free Fatty Acid Levels, Percent of Isoproterenol Control Activity With Insulin: peptide 10 μM with 0.25 nM insulin, relative to 0.25 nM insulin treated cells
Method: The effect of the peptides on fatty acid metabolism can be assessed using an assay to monitor free fatty acid levels produced by cultured cells such as mouse adipocytes. […] Following 3 h incubation, conditioned medium from each well was transferred to a fresh 96-well plate. […] Absorbance values were expressed as percent control activity relative to 0.1 nM isoproterenol treated cells (no insulin) for 10 μM peptide alone or 0.25 nM insulin treated cells (with insulin) for 10 μM peptide in presence of 0.25 nM insulin. […] Data are presented as averages values from 2-3 independent experiments with each data point performed in triplicate.

C2C12 cells [2] = assay: Cell proliferation in C2C12 cells (Cyquant DNA dye binding); assay type: cell-based, mouse; details: lovastatin 10 μM, growth arrest control
Method: The effect of the peptides on cell proliferation was assessed using a DNA dye binding assay in cultured cells such as mouse myoblast cells. Peptides were initially prepared as 10 mM stock in DMSO, diluted to 1 mM in H2O, and added at a final concentration of 10 μM (0.1% DMSO). Lovastatin was used as a growth arrest control at final concentration of 10 μM. […] C2C12 cells were grown in DMEM supplemented with 20% FBS with 100 IU/ml penicillin and 100 μg/ml streptomycin. […] C2C12 cells were seeded at 800 cells per well on 96-well plates. […] Cell proliferation was determined using Cyquant Direct Nucleic Acid Stain (Thermo Fisher Scientific, Waltham, Mass.) according to the manufacturer's instructions. Fluorescence for each sample well on the plate was measured using a Cytation 3 plate reader at Ex/Em=495/535 nm (BioTek, Winooski, Vt.). Activity was calculated relative to 0.1% DMSO untreated control. The relative standard deviation for the lovastatin control was <27%. The cell proliferation for the lovastatin control was <25% of the value for untreated control.

C2C12 cells [3] = assay: ATP levels in cultured C2C12 cells (CellTiter-Glo); assay type: cell-based, mouse; details: lovastatin 10 μM, positive control
Method: The effect of the peptides on cellular metabolism can be assessed using an assay of ATP levels in cultured cells such as mouse myoblast cells. Peptides were initially prepared as 10 mM stock in DMSO, diluted to 1 mM in H2O, and used at a final concentration of 10 μM (0.1% DMSO). […] Lovastatin was prepared as 10 mM stock in 70% Ethanol and used at final concentration of 10 μM containing 0.1% DMSO. CellTiter-Glo® Assay kit was purchased from Promega (Madison, Wis.). […] C2C12 cells were grown in DMEM medium supplemented with 20% FBS with 100 IU/ml penicillin and 100 μg/ml streptomycin. […] C2C12 cells were seeded at 800 cells per well on 96-well plates. […] ATP levels were determined using a CellTiter-Glo Assay kit according to the manufacturer's instructions. Luminescence for each sample well on the plate was measured using a Cytation 3 plate reader (BioTek, Winooski, Vt.). Activity was calculated relative to 0.1% DMSO treated control. The relative standard deviation of the result for the 0.1% DMSO treated control was <5%. […] ATP levels for treatment with lovastatin (10 μM) were <50% of the 0.1% DMSO treated control value.

C2C12 cells [4] = assay: Cellular ROS levels induced by TBHP in C2C12 cells (DCFDA); assay type: cell-based, mouse; details: sulforaphane 10 μM, protective control
Method: The protective or synergistic effect of the peptides on cellular levels of reactive oxygen species (ROS) induced by oxidative stress can be assessed using an assay of ROS in cultured cells such as mouse myoblasts exposed to a suitable oxidative stress. Peptides were initially prepared as 10 mM stock in DMSO, diluted to 1 mM in H2O, and added at a final concentration of 10 μM (0.1% DMSO). […] TBHP was used at final concentration of 100 μM. Sulforaphane at final concentration of 10 μM was used as a protective control against TBHP induced ROS production. […] C2C12 cells were grown in DMEM supplemented with 20% FBS with 100 IU/ml penicillin and 100 μg/ml streptomycin. […] C2C12 cells were seeded at 7,500 cells per well on 96-well plates. […] After 18-20 hours of incubation the cells were loaded with DCFDA for 45 min. TBHP at 100 μM was then added to the appropriate wells for 1 hour. ROS activity was determined using a DCFDA Cellular ROS Detection Assay kit (Abcam, Cambridge, Mass.) according to the manufacturer's instructions. Fluorescence in each sample well on the plate was measured using a Cytation 3 plate reader at Ex/Em=485/535 nm (BioTek, Winooski, Vt.). Activity was calculated relative to TBHP control. The relative standard deviation of the sulforaphane control was <20%. The ROS level produced by the sulforaphane control in the presence of TBHP was 52% of the TBHP control.

| Molecule | Glucose Production, Percent of Control Activity No Insulin (H4-IIE cells) [%] | Glucose Production, Percent of Control Activity With Insulin (H4-IIE cells) [%] | Glucose Utilization, Percent of Control Activity No Insulin (C2C12 cells [1]) [%] | Glucose Utilization, Percent of Control Activity With Insulin (C2C12 cells [1]) [%] | Free Fatty Acid Levels, Percent of Isoproterenol Control Activity No Insulin (3T3-L1 mouse adipocytes) [%] | Free Fatty Acid Levels, Percent of Isoproterenol Control Activity With Insulin (3T3-L1 mouse adipocytes) [%] | Cell proliferation, % of value for untreated control (C2C12 cells [2]) [%] | ATP levels, % of 0.1% DMSO treated control value (C2C12 cells [3]) [%] | ROS level in the presence of TBHP, % of TBHP control (C2C12 cells [4]) [%] |
| --- | --- | --- | --- | --- | --- | --- | --- | --- | --- |
| 22 (RRMVYQCLCG[dA]; cysteine pairing not given here) [compound 22] | 109.8 | 49.1 | 100.9 | 79.8 | 107 | 61.9 | – | – | – |
| 23 (RRMVFQCLEG[dA]) [compound 23] | 104.3 | 57.7 | 102 | 86.6 | 104 | 57.7 | – | – | – |
| 24 (RRMVYQCLEG[dA]) [compound 24] | 107.6 | 61.9 | 98.8 | 85.8 | 108 | 59.2 | – | – | – |
| 25 (RREMVYQCLCG[dA]; cysteine pairing not given here) [compound 25] | 108.2 | 65.2 | 99.9 | 77.4 | 110 | 67.4 | – | – | – |
| 26 (RREMVYQCLEG[dA]) [compound 26] | 111.5 | 103.1 | 102.2 | 98.4 | 104 | 52.8 | – | – | – |
| 27 (RRMAYQCLEG[dA]) [compound 27] | 101.7 | 98.9 | 101.2 | 106.2 | 108 | 74.2 | – | – | – |
| 28 (RRMGYQCLEG[dA]) [compound 28] | 107.4 | 91.4 | 103.3 | 88.2 | 109 | 57.8 | – | – | – |
| 29 (RRMMGMVYQCLEG[dA]) [compound 29] | 113.9 | 148.6 | 99.2 | 92.3 | 110 | 52.8 | – | – | – |
| 30 (RRMMGMVAQCLEGA; (14)..(14) RRMMGMVAQCLEG(A) [compound 30] | 105.7 | 65.7 | 97.7 | 88.3 | 102 | 56.0 | – | – | – |
| 31 (RRMEVYQCLCG[dA]; not fully specified; printed as RRMEVYQCLCG(dA); cysteine pairing not given here) [compound 31] | 95.5 | 108.3 | 103.7 | 99.2 | 113 | 94.6 | – | – | – |
| 32 (RRMEVYQCLEG[dA]) [compound 32] | 99.5 | 81.9 | 103.8 | 85.0 | 108 | 62.9 | – | – | – |
| CC[C@H](C)C(=O)O[C@H]1C[C@@H](C)C=C2C=C[C@H](C)[C@H](CC[C@@H]3C[C@@H](O)CC(=O)O3)[C@H]21 [lovastatin, reference compound] | – | – | – | – | – | – | < 25 | < 50 | – |
| C[S+]([O-])CCCCN=C=S (stereo not drawn) [sulforaphane, reference compound] | – | – | – | – | – | – | – | – | 52 |
